Read-outs that look alike come from different tables or passages of the source.
Assays:
[1] = system: SARS-CoV-2; assay: Cytopathic effect (CPE) suppression effect confirmation test using HEK293T/ACE2-TMPRSS2 cells; assay type: cell-based; settings: Severe acute respiratory syndrome coronavirus 2, HEK-293T
[2] = target: Recombinant SARS-CoV-2 3CL Protease (Severe acute respiratory syndrome coronavirus 2 (2019-nCoV) (SARS-CoV-2), UniProt P0DTD1); assay: biochemical; assay type: biochemical
[3] = 50% SARS-CoV-2 infected cell death inhibitory concentration, HEK293T/ACE2-TMPRSS2 cells, read-out: EC50
[4] = 50% SARS-CoV-2 3CL protease inhibitory concentration, read-out: IC50
[5] = 72 h, read-out: EC50 (50% SARS-CoV-2 infected cell death inhibitory concentration), class, HEK293T/ACE2-TMPRSS2 cells, CPE suppression, CellTiter-Glo 2.0 after 3 days culture

| Compound | EC50 [1, 3] | IC50 [2, 4] | EC50 [1, 5] | EC50 ([1]; 72 h, read-out: EC50 (50% SARS-CoV-2 infected cell death inhibitory concentration), HEK293T/ACE2-TMPRSS2 cells, CPE suppression, CellTiter-Glo 2.0 after 3 days culture) | IC50 [2] |
| --- | --- | --- | --- | --- | --- |
| N#CCn1c(CCC2CC(F)(F)C2)c(-c2ccc(F)c(Cl)c2)c(=O)n(-c2cncc(Cl)c2)c1=O [Compound I-391] | < 0.1 µM | < 0.01 µM | – | – | – |
| N#CCn1c(N2CCC(C(F)F)CC2)c(-c2ccc(F)c(C(F)F)c2)c(=O)n(-c2cncc(C#N)c2)c1=O [Compound I-413] | < 0.1 µM | < 0.01 µM | – | – | – |
| CC(C)OC1CN(c2c(-c3ccc(F)c(Cl)c3)c(=O)n(-c3cncc(Cl)c3)c(=O)n2CC#N)C1 [Compound I-084] | – | < 0.01 µM | < 0.1 µM | – | – |
| N#CCn1c(N2CC(OC(F)(F)F)C2)c(-c2ccc(F)c(Cl)c2)c(=O)n(-c2cnc3cc(F)ccn23)c1=O [Compound I-351] | < 0.1 µM | < 0.01 µM | – | – | – |
| N#CCc1cncc(-n2c(=O)c(-c3ccc(F)c(Cl)c3)c(N3CC4(C3)CC(F)(F)C4)n(CC#N)c2=O)n1 [Compound I-209] | < 0.1 µM | < 0.01 µM | – | – | – |
| N#CCn1c(CCC(F)F)c(-c2ccc(F)c(Cl)c2)c(=O)n(-c2cncc(Cl)c2)c1=O [Compound I-350] | < 0.1 µM | < 0.01 µM | – | – | – |
| Cc1cncc(-n2c(=O)c(Cc3cc(F)c(F)c(F)c3)c(N3CCC(C(N)=O)C3)n(CC#N)c2=O)c1 (racemic) [Compound I-100] | – | < 0.01 µM | < 0.1 µM | – | – |
| N#CCn1c(N2CC3(CCOC3)C2)c(-c2ccc(F)c(Cl)c2)c(=O)n(-c2cncc(C(F)(F)F)n2)c1=O [Compound I-190] | – | < 0.01 µM | < 0.1 µM | – | – |
| Cc1cncc(-n2c(=O)c(Cc3cc(F)c(F)c(F)c3)c(N3CCC(C(F)F)CC3)n(CC#N)c2=O)c1 [Compound I-118] | – | < 0.01 µM | < 0.1 µM | – | – |
| C[C@@H](C#N)n1c(N2CC[C@@](O)(C(F)F)C2)c(-c2ccc(F)c(C#N)c2)c(=O)n(-c2cncc(Cl)c2)c1=O (single isomer, unassigned) [Compound I-427] | < 0.1 µM | < 0.01 µM | – | – | – |
| N#CCn1c(N2CC(C(F)(F)F)C2)c(-c2ccc(F)c(Cl)c2)c(=O)n(-c2cncc(Cl)c2)c1=O [Compound I-086] | – | 0.0007 µM | – | 0.00331 µM | – |
| N#CCn1c(N2CC3CCC(CC3)C2)c(Cc2cc(F)c(F)c(F)c2)c(=O)n(-c2cnc3ccccn23)c1=O [Compound I-038] | – | – | < 0.1 µM | – | 0.01 to 0.1 µM |
| N#CCn1c(N2CC(F)C2)c(-c2ccc(F)c(Cl)c2)c(=O)n(-c2cncc(Cl)c2)c1=O [Compound I-309] | < 0.1 µM | < 0.01 µM | – | – | – |
| CC1(C)CN(c2c(-c3cccc(C#N)c3)c(=O)n(-c3cncc(Cl)c3)c(=O)n2CC#N)C1 [Compound I-175] | – | < 0.01 µM | < 0.1 µM | – | – |
| Cc1cncc(-n2c(=O)c(-c3ccc(F)c(Cl)c3)c(/C=C/c3ccc(C(F)(F)F)cc3)n(CC#N)c2=O)c1 [Compound I-212] | 0.1 to 1 µM | 0.01 to 0.1 µM | – | – | – |
| Cc1cncc(-n2c(=O)c(Cc3cc(F)c(F)c(F)c3)c(N3CCC(C)(F)C3)n(CC#N)c2=O)c1 (racemic) [Compound I-115] | – | < 0.01 µM | < 0.1 µM | – | – |
| Cc1cncc(-n2c(=O)c(-c3ccc(F)c(Cl)c3)c(C3=CCOCC3)n(CC#N)c2=O)c1 [Compound I-211] | < 0.1 µM | < 0.01 µM | – | – | – |
| N#CCn1c(N2CC3(CC3)C2)c(-c2ccc(F)c(Cl)c2)c(=O)n(-c2cncc(Cl)c2)c1=O [Compound I-078] | – | < 0.01 µM | < 0.1 µM | – | – |
| N#CCn1c(N2CC(OC(F)F)C2)c(-c2ccc(F)c(Cl)c2)c(=O)n(-c2cncc(OCF)n2)c1=O [Compound I-420] | < 0.1 µM | < 0.01 µM | – | – | – |
| N#CCn1c(N2CC(F)(F)C2)c(-c2ccc(F)c(Cl)c2)c(=O)n(-c2cncc(Cl)c2)c1=O [Compound I-290] | < 0.1 µM | < 0.01 µM | – | – | – |
| N#CCn1c(N2CC(c3nccs3)C2)c(-c2ccc(F)c(Cl)c2)c(=O)n(-c2cncc(Cl)c2)c1=O [Compound I-079] | – | < 0.01 µM | < 0.1 µM | – | – |
| C#CCn1c(C)c(-c2ccc(F)c(Cl)c2)c(=O)n(-c2cncc(Cl)c2)c1=O [Compound I-438] | < 0.1 µM | < 0.01 µM | – | – | – |
| N#CCn1c(Cl)c(-c2ccc(F)c(Cl)c2)c(=O)n(-c2cnc3cc(Cl)ccn23)c1=O [Compound I-126] | – | > 0.1 µM | 1 to 5 µM | – | – |
| Cn1ccc(-c2c(-c3ccc(F)c(Cl)c3)c(=O)n(-c3cncc(Cl)c3)c(=O)n2CC#N)cc1=O [Compound I-303] | < 0.1 µM | < 0.01 µM | – | – | – |
| N#CCn1c(N2CC[C@@](O)(c3ccccc3)C2)c(-c2ccc(F)c(Cl)c2)c(=O)n(-c2cncc(Cl)c2)c1=O (single isomer, unassigned) [Compound I-240] | < 0.1 µM | < 0.01 µM | – | – | – |
| Cc1cc(-n2c(=O)c(-c3ccc(F)c(Cl)c3)c(-c3nc4ccccc4s3)n(CC#N)c2=O)cc(=O)[nH]1 [Compound I-189] | – | < 0.01 µM | < 0.1 µM | – | – |

Reference: patent publication US20250092056A1, “URACIL DERIVATIVES HAVING VIRUS REPLICATION INHIBITORY ACTIVITY AND PHARMACEUTICAL COMPOSITION COMPRISING THE SAME” (Shionogi & Co., Ltd., priority 2022, published 2025)
